25 compounds from patent US10730874B2 (Shire Human Genetic Therapies, Inc., priority 2018, dated 2020) can be followed below.

pEC50: −log10 of the molar value.

In general, pEC50 refers to −log10 of the EC50, conventionally taken in molar units.

Sequence of human activated kallikrein enzyme (plasma kallikrein) (P03952 391-638): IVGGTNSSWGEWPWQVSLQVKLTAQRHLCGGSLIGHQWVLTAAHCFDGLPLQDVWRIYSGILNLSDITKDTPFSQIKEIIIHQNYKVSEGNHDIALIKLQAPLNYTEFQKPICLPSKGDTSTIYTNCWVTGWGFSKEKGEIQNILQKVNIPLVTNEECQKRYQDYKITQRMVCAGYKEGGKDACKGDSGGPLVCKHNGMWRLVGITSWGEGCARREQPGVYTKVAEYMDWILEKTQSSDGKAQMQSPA
Sequence of human activated kallikrein enzyme (plasma kallikrein) (P03952 20-390 partner): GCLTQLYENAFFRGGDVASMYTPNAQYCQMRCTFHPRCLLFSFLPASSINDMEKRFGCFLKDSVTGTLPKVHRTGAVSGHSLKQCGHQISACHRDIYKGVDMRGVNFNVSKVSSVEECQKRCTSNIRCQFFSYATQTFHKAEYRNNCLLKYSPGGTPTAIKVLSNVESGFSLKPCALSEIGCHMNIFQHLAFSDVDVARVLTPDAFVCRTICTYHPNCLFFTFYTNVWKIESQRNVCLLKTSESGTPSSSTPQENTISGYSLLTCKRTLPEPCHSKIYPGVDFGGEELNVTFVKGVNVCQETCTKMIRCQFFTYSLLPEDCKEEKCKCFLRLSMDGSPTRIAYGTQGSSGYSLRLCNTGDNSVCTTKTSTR

The first assay addresses human activated kallikrein enzyme (plasma kallikrein) (Homo sapiens (Human), UniProt P03952). Put plainly: Inhibition of human activated plasma kallikrein, fluorogenic peptide substrate assay, 500 pM enzyme format. The class given is biochemical. Particulars: 500 pM activated kallikrein enzyme, 300 uM Pro-Phe-Arg-7-amido-4-methylcoumarin substrate, 30 min preincubation, 10 min at RT; read-out: Primary Dose Response Assay: Average EC50. Here is the method:
Example compounds were evaluated for inhibition of the human activated kallikrein enzyme in two formats of an assay employing a fluorogenic peptide substrate. In one assay format, the concentrations of reagents were as follows: 20 mM Tris pH 7.5, 1 mM EDTA, 150 mM sodium chloride, 0.1% PEG-400, 0.1% Triton X-100, 500 pM activated kallikrein enzyme, 300 uM Pro-Phe-Arg-7-amido-4-methylcoumarin substrate. Prior to reaction initiation with substrate, enzyme and inhibitors were preincubated for 30 min at RT. After initiation with substrate, reactions were incubated for 10 min at RT and fluorescence emission at 460 nm from 380 nm excitation measured with a microplate reader. In another assay format, the concentrations of reagents were as follows: 20 mM Tris pH 7.5, 1 mM EDTA, 150 mM sodium chloride, 0.1% PEG-400, 0.1% Triton X-100, 5 pM activated kallikrein enzyme, 300 uM Pro-Phe-Arg-7-amido-4-methylcoumarin substrate. Prior to reaction initiation with substrate, enzyme and inhibitors were preincubated for 30 min at RT. After initiation with substrate, reactions were incubated for 18 h at RT and fluorescence emission at 460 nm from 380 nm excitation measured with a microplate reader.
As for `O=C(O)c1cnn(Cc2cc(C3CC3)cn3cc(Cn4cc(C(=O)NCc5ncn6ccc(Cl)c(F)c56)nn4)nc23)c1` [Example I-193, 1-((2-((4-(((7-chloro-8-fluoroimidazo[1,5-a]pyridin-1-yl)methyl)carbamoyl)-1H-1,2,3-triazol-1-yl)methyl)-6-cyclopropylimidazo[1,2-a]pyridin-8-yl)methyl)-1H-pyrazole-4-carboxylic acid], the pEC50 is over 9.00.
The same measure, in the same setting: the figure for `COC(=O)C(F)Cc1cc(C2CC2)cn2cc(Cn3cc(C(=O)NCc4ncn5ccc(Cl)c(F)c45)nn3)nc12` (stereo not shown) [Example I-224a, methyl 3-(2-((4-(((7-chloro-8-fluoroimidazo[1,5-a]pyridin-1-yl)methyl)carbamoyl)-1H-1,2,3-triazol-1-yl)methyl)-6-cyclopropylimidazo[1,2-a]pyridin-8-yl)-2-fluoropropanoate] is over 9.00.
In the case of `O=C(NCc1ncn2ccc(Cl)cc12)c1noc(Cc2cn3cc(C4CC4)ccc3n2)n1` [Example I-177, N-((7-chloroimidazo[1,5-a]pyridin-1-yl)methyl)-5-((6-cyclopropylimidazo[1,2-a]pyridin-2-yl)methyl)-1,2,4-oxadiazole-3-carboxamide], the pEC50 is 8.00 to 9.00.
Same read-out and setting: in the case of `O=C(NCc1ncn2ccc(Br)cc12)c1cn(Cc2cn3cc(C4CC4)ccc3n2)nc1C(F)F` [Example I-95, N-((7-bromoimidazo[1,5-a]pyridin-1-yl)methyl)-1-((6-cyclopropylimidazo[1,2-a]pyridin-2-yl)methyl)-3-(difluoromethyl)-1H-pyrazole-4-carboxamide] it was 8.00 to 9.00.
Turning to `O=C(NCc1ncn2cc(F)c(Cl)cc12)c1cn(Cc2cn3cc(C4CC4)ccc3n2)nn1` [Example I-277, N-((7-chloro-6-fluoroimidazo[1,5-a]pyridin-1-yl)methyl)-1-((6-cyclopropylimidazo[1,2-a]pyridin-2-yl)methyl)-1H-1,2,3-triazole-4-carboxamide], the negative logarithm of the EC50 (pEC50) was 7.00 to 8.00.
Regarding `O=C(NCc1ncn2ccc(Cl)c(F)c12)c1cn(Cc2cc3ccc(C4CC4)cc3s2)nn1` [Example I-229, N-((7-chloro-8-fluoroimidazo[1,5-a]pyridin-1-yl)methyl)-1-((6-cyclopropylbenzo[b]thiophen-2-yl)methyl)-1H-1,2,3-triazole-4-carboxamide], the negative logarithm of the EC50 (pEC50) was 7.00 to 8.00.
On to `O=C(NCc1ncn2ccc(Cl)c(F)c12)c1cn(Cc2cn3cc(C4CC4)cc(-n4cn[nH]c(=O)c4=O)c3n2)nn1` [Example I-247, N-((7-chloro-8-fluoroimidazo[1,5-a]pyridin-1-yl)methyl)-1-((6-cyclopropyl-8-(5,6-dioxo-5,6-dihydro-1,2,4-triazin-4(1H)-yl)imidazo[1,2-a]pyridin-2-yl)methyl)-1H-1,2,3-triazole-4-carboxamide], for which the negative-log EC50 (pEC50) was over 9.00.
The same measure, in the same setting: the figure for `O=C(NCc1ncn2ccc(Cl)cc12)c1cn(Cc2cn3c(F)c(C4CC4)ccc3n2)nn1` [Example I-144, N-((7-chloroimidazo[1,5-a]pyridin-1-yl)methyl)-1-((6-cyclopropyl-5-fluoroimidazo[1,2-a]pyridin-2-yl)methyl)-1H-1,2,3-triazole-4-carboxamide] is over 9.00; for `O=C(NCc1ncn2ccc(Cl)cc12)c1cnn(Cc2cn3cc(C4CC4)cc(CN4CCOCC4)c3n2)c1` [Example I-101, N-((7-chloroimidazo[1,5-a]pyridin-1-yl)methyl)-1-((6-cyclopropyl-8-(morpholinomethyl)imidazo[1,2-a]pyridin-2-yl)methyl)-1H-pyrazole-4-carboxamide] it is over 9.00.
On the same count and under the same terms, the figure for `O=C(NCc1nc(C(F)F)n2ccc(Br)cc12)c1cnn(Cc2cn3cc(C4CC4)ccc3n2)c1` [Example I-83, N-((7-bromo-3-(difluoromethyl)imidazo[1,5-a]pyridin-1-yl)methyl)-1-((6-cyclopropylimidazo[1,2-a]pyridin-2-yl)methyl)-1H-pyrazole-4-carboxamide] is 7.00 to 8.00.
Regarding `O=C(O)c1ccn(Cc2cc(C3CC3)cn3cc(Cn4cc(C(=O)NCc5ncn6ccc(Cl)c(F)c56)nn4)nc23)n1` [Example I-202, 1-((2-((4-(((7-chloro-8-fluoroimidazo[1,5-a]pyridin-1-yl)methyl)carbamoyl)-1H-1,2,3-triazol-1-yl)methyl)-6-cyclopropylimidazo[1,2-a]pyridin-8-yl)methyl)-1H-pyrazole-3-carboxylic acid], the pEC50 was over 9.00.
On the same count and under the same terms, the figure for `Nc1c(C2CC2)ccc2nc(Cn3cc(C(=O)NCc4ncn5ccc(Cl)cc45)cn3)cn12` [Example I-88, 1-((5-amino-6-cyclopropylimidazo[1,2-a]pyridin-2-yl)methyl)-N-((7-chloroimidazo[1,5-a]pyridin-1-yl)methyl)-1H-pyrazole-4-carboxamide] is 8.00 to 9.00; for `Cn1nc(C(=O)NCc2ncn3ccc(Cl)cc23)nc1Cc1cn2cc(C3CC3)ccc2n1` [Example I-160, N-((7-chloroimidazo[1,5-a]pyridin-1-yl)methyl)-5-((6-cyclopropylimidazo[1,2-a]pyridin-2-yl)methyl)-1-methyl-1H-1,2,4-triazole-3-carboxamide] it is 8.00 to 9.00.
On to `O=C(NCc1ncn2ccc(Cl)cc12)c1cnn(Cc2cn3nc(C4CC4)ccc3n2)c1` [Example I-15, N-((7-chloroimidazo[1,5-a]pyridin-1-yl)methyl)-1-((6-cyclopropylimidazo[1,2-b]pyridazin-2-yl)methyl)-1H-pyrazole-4-carboxamide], for which the pEC50 was over 9.00.
The same measure, in the same setting: the figure for `O=C(NCc1ncn2ccc(Cl)cc12)c1cn(Cc2cn3cc(C4CC4)ccc3n2)nc1C1CC1` [Example I-78, N-((7-chloroimidazo[1,5-a]pyridin-1-yl)methyl)-3-cyclopropyl-1-((6-cyclopropylimidazo[1,2-a]pyridin-2-yl)methyl)-1H-pyrazole-4-carboxamide] is over 9.00; for `N#Cc1cc(Cn2cc(C(=O)NCc3ncn4ccc(Cl)c(F)c34)nn2)cc2cc(C3CC3)cnc12` [Example I-273, N-((7-chloro-8-fluoroimidazo[1,5-a]pyridin-1-yl)methyl)-1-((8-cyano-3-cyclopropylquinolin-6-yl)methyl)-1H-1,2,3-triazole-4-carboxamide] it is 8.00 to 9.00; for `Nc1ccc(C2CC2)c2nc(Cn3cc(C(=O)NCc4ncn5ccc(Cl)cc45)cn3)cn12` [Example I-89, 1-((5-amino-8-cyclopropylimidazo[1,2-a]pyridin-2-yl)methyl)-N-((7-chloroimidazo[1,5-a]pyridin-1-yl)methyl)-1H-pyrazole-4-carboxamide] it is 5.70 to 7.00.
Regarding `CCOC(=O)COc1cc(C2CC2)cn2cc(Cn3cc(C(=O)NCc4ncn5ccc(Cl)c(F)c45)nn3)nc12` [Example I-207, ethyl 2-((2-((4-(((7-chloro-8-fluoroimidazo[1,5-a]pyridin-1-yl)methyl)carbamoyl)-1H-1,2,3-triazol-1-yl)methyl)-6-cyclopropylimidazo[1,2-a]pyridin-8-yl)oxy)acetate], the pEC50 was over 9.00.
On to `O=C(NCc1ncn2ccc(Cl)c(F)c12)c1cn(Cc2cn3cc(C4CC4)cc(CC4COC4)c3n2)nn1` [Example I-186, N-((7-chloro-8-fluoroimidazo[1,5-a]pyridin-1-yl)methyl)-1-((6-cyclopropyl-8-(oxetan-3-ylmethyl)imidazo[1,2-a]pyridin-2-yl)methyl)-1H-1,2,3-triazole-4-carboxamide], for which the negative-log EC50 (pEC50) is over 9.00.
Regarding `O=C(NCc1ncn2ccc(Cl)cc12)c1cnn(Cc2cn3cc(C4CC4)c(F)cc3n2)c1` [Example I-21, N-((7-chloroimidazo[1,5-a]pyridin-1-yl)methyl)-1-((6-cyclopropyl-7-fluoroimidazo[1,2-a]pyridin-2-yl)methyl)-1H-pyrazole-4-carboxamide], the pEC50 was 8.00 to 9.00.
Regarding `O=C(NCc1ncn2ccc(Cl)c(F)c12)c1cn(Cc2nc3ccc(C4CC4)cc3s2)nn1` [Example I-252, N-((7-chloro-8-fluoroimidazo[1,5-a]pyridin-1-yl)methyl)-1-((6-cyclopropylbenzo[d]thiazol-2-yl)methyl)-1H-1,2,3-triazole-4-carboxamide], the negative-log EC50 (pEC50) was 7.00 to 8.00.
Take `CCc1cccc2nc(Cn3cc(C(=O)NCc4ncn5ccc(Cl)cc45)cn3)cn12` [Example I-46, N-((7-chloroimidazo[1,5-a]pyridin-1-yl)methyl)-1-((5-ethylimidazo[1,2-a]pyridin-2-yl)methyl)-1H-pyrazole-4-carboxamide]: the pEC50 was 7.00 to 8.00.
As for `CC(c1cn2cc(C3CC3)ccc2n1)n1cc(C(=O)NCc2ncn3ccc(Cl)c(F)c23)nn1` (stereo not shown) [Example I-198, N-((7-chloro-8-fluoroimidazo[1,5-a]pyridin-1-yl)methyl)-1-(1-(6-cyclopropylimidazo[1,2-a]pyridin-2-yl)ethyl)-1H-1,2,3-triazole-4-carboxamide], the negative logarithm of the EC50 (pEC50) was over 9.00.
On the same count and under the same terms, in the case of `O=C(NCCc1ncn2ccc(Cl)cc12)c1cnn(Cc2cn3cc(C4CC4)ccc3n2)c1` [Example I-94, N-(2-(7-chloroimidazo[1,5-a]pyridin-1-yl)ethyl)-1-((6-cyclopropylimidazo[1,2-a]pyridin-2-yl)methyl)-1H-pyrazole-4-carboxamide] it was 7.00 to 8.00.

Still in this assay, the particulars now being: comparative compounds (Table II); assay format with 500 pM (500 μM in the source) activated kallikrein; read-out: Primary Dose Response Assay: Average EC50.
Regarding `O=C(NCc1ncn2ccc(C3CC3)cc12)c1cnn(Cc2cn3cc(C4CC4)ccc3n2)c1` [drawing 403, reference compound], the pEC50 was 5.70 to 7.00.
